Test results as given in patent US5877165A, “Boronated porhyrins and methods for their use” (priority 1997, dated 1999).

Legend:
[1] = system: EMT-6 mammary tumors; assay: Experiment II: boron concentrations in tissues, mice bearing EMT-6 tumors (Table 9); type: in vivo, BALB/c mice; details: 90 hrs after last ip injection; NiDPE 78 (6 ip), VCDP 245 μg/gbw (12 ip)
Method: Lipophilic porphyrins 1, 2, 4, 5, and 6 were injected as emulsions in either 3% or 9% CRM and either 6% or 18% PRG with saline as previously described in Example 2 above. Water soluble porphyrins 3 and 7 were dissolved in saline. BPA was solubilized as a fructose complex.
Female BALB/c mice (from Taconic Farms, Germantown, N.Y.) (20-25 g) were implanted with either KHJJ or EMT-6 tumors according to the procedure described in Example 3A above.
Under deep halothane anesthesia leading to euthanasia, right ventricular blood was collected in Microtainer (Becton-Dickinson, Rutherford, N.J.) tubes containing EDTA for hematological analyses and boron assays of whole blood and in Microtainer™ tubes containing lithium heparin for chemical analyses and enzyme assays of blood plasma. Tumor, brain, fat, muscle, and liver tissues were sampled at necropsy for boron analyses.
Hematological, chemical and enzymatic tests were carried out as described in Example 3 above. Nonparametric statistical analyses were carried out using the Wilcoxon Two-Sample Test in accordance with procedures described in Slatkin, D.N., 1995. Boron analyses were conducted in accordance with the procedure described in Example 3 above. Fat and liver tissues were assayed for ^10 B by prompt-gamma spectroscopy as described in Fairchild, et al., 1986. These measurements were multiplied by 5.0 to give total boron concentrations due to the use of boron of natural isotope abundance in the syntheses of all boronated porphyrins reported.

[2] = Overall ranking of boronated porphyrins for BNCT guided by biodistribution and toxicity tests in mice (Table 11); details: rank; higher numerical value = better performance
Method: The higher the numerical value, the better the performance of that porphyrin for that property. […] Although VCDP was able to deliver therapeutic amounts of boron to tumor, such side effects such as thrombocytopenia, which was induced within 3 hours after injections, weight loss, and the altered hepatic enzymes were serious enough to rank VCDP considerably behind the TCP's and the TCP-H's (Miura et al., 1992). In addition, the 80-hour drug administration period and the 90-hour blood clearance period are of great inconvenience. Moreover, this 4-day difference between the VCDP and the TCP (or TCP-H) dose and clearance schedules would translate into a 4-day greater delay between initiation of drug administration and neutron irradiation which would allow greater tumor growth to occur.
[…]
biodistribution and toxicity tests in mice. An asterisk indicates

[3] = system: EMT-6 tumors; assay: Boron concentrations arithmetically normalized to constant dose, mice bearing EMT-6 tumors (FIG. 3); type: in vivo, BALB/c mice; details: normalized porphyrin dose (160 μg porphyrin/gbw)
Method: Since the porphyrins were not given at the same dose, the boron concentrations in tumor, blood, and brain were arithmetically normalized to a total dose of 160 μg porphyrin/gbw for comparison in FIG. 3. Since each porphyrin has a different percentage of boron per unit mass, tumor boron concentrations were also arithmetically normalized to a total dose of 36.5 μg B/gbw, also shown in FIG. 3.

[4] = cited from earlier work

3,8-divinyl-nido-carboranyldeuteroporphyrin [VCDP]
Boron concentration, Blood [1]: 7 (4.3-13) μB/g
Boron concentration, Brain [1]: 8.1 (4.9-16.2) μB/g
Boron concentration, Tumor [1]: 53 (30-106) μB/g
Drug tolerance/deliverable boron (ranking) [2]: 2
Lipophilicity (ranking) [2]: 0
Tumor uptake (normalized) (ranking) [2]: 3
Tumor:Blood (ranking) [2]: 2
tumor boron uptake, normalized [3]: 38
toxicity vs control, in words ([4]; 130 μg VCDP/gbw over 32 hr, 90 hrs after last injection (Miura et al., 1992)): no differences from control groups given a bicarbonate solution, although CPK was slightly depressed
time to thrombocytopenia after injections ([4]; Miura et al., 1992): ≤ 3 h
dose per injection that keeps mortality below 10% ([4]; per injection, mice): 22 μg VCDP/gbw
